Results on 28 compounds are retold here after patent US10562902B2, “IRAK4 inhibitor and use thereof” (BEIJING HANMI PHARMACEUTICAL CO., LTD., priority 2015, dated 2020).

In the experiment the target is IRAK4 kinase (Homo sapiens (Human), UniProt Q9NWZ3). Kind of experiment: IRAK4 kinase activity inhibition assay. It counts as biochemical. Conditions: ADP-Glo kinase assay, 10 μM ATP, MBP substrate. The procedure: IRAK4 kinase (purchased from Life Technologies, Cat. No.: PR5612U) was diluted to 2 folds of the final concentration (the final concentration is […]) with reaction buffer (40 mM Tris-HC1, pH 7.5; 20 mM MgCl2; 0.1 mg/mL BSA; 1 mM DTT), and added to a 384-well plate at 5 μL/well. The test drugs were 10-fold serial diluted from 10 μM to set six concentration points and added to the test wells of the 384-well plate at 2.5 μL/well. After incubation for 10 min at 25° C., 10 μM of ATP and 0.1 μg/μL of an enzyme reaction substrate, myelin basic protein MBP (purchased from Signal Chem, Cat. No.: M42-51N) were added at 2.5 μL/well, and reacted at 25° C. for 60 minutes. After the reaction was completed, the kinase activity assay was performed using the ADP-Glo™ kinase assay kit (purchased from Promega, Cat. No.: V9102) according to the manufacture's instruction, i.e., 10 μL of ADP-Glo reaction reagent was first added and reacted at 25° C. for 40 minutes, 10 μL of the reaction mixture was taken and mixed with 10 μL of ADP-Glo detection reagent, and reacted at 25° C. for 30 minutes. The kinase activity was then detected, and the IC50 values of the test drugs were calculated.
(In ADP-Glo the light output rises with the ADP produced.)

Chain of IRAK4 kinase (Q9NWZ3 whole entry): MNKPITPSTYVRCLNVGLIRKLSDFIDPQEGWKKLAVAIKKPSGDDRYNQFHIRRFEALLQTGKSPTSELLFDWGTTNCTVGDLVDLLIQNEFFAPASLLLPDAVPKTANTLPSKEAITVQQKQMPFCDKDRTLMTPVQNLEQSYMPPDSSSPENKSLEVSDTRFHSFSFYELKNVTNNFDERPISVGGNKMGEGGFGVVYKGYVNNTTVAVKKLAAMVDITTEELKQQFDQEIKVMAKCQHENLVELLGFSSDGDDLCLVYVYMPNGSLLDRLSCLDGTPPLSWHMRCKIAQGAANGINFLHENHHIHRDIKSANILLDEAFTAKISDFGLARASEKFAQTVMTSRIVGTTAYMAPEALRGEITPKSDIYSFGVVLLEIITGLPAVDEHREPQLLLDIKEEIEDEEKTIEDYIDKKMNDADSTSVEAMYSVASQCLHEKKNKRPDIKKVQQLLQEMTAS

In general, IC50 refers to the concentration that gives 50% inhibition. Compound `Cn1cc(-n2ccc3nc(Nc4cccnc4)nc(O[C@H]4CCOC4)c32)cn1` [Example 117] registered a 50% inhibitory concentration (IC50) of 1000 to 10000 nM.

Consider `CNC(=O)c1cc(Nc2nc(OC3CCOCC3)c3c(ccn3-c3cnn(C)c3)n2)cs1` [Example 172], for which the IC50 was ≤ 100 nM. In the case of `Cc1cc(Nc2nc(N[C@H]3C[C@@](C)(O)C3)c3c(ccn3-c3cnn(C)c3)n2)sn1` [Example 14] it was ≤ 100 nM; in that of `Cc1cc(Nc2nc(NC3CCC(=O)CC3)c3c(ccn3-c3cnn(C)c3)n2)sn1` [Example 23], 100 to 1000 nM. In the case of `CCCNC(=O)c1csc(Nc2nc(O[C@H]3CCOC3)c3c(ccn3-c3cnn(C)c3)n2)c1` [Example 135] it was 100 to 1000 nM. For `Cn1cc(-n2ccc3nc(Nc4cnn(-c5ccncc5)c4)nc(O[C@H]4CCOC4)c32)cn1` [Example 113], the IC50 is ≤ 100 nM. In turn, `CO[C@H]1CC[C@@H](Nc2nc(Nc3cc(C)ns3)nc3ccn(-c4cnn(C)c4)c23)CC1` [Example 25] came in with an IC50 of 100 to 1000 nM.

`CN(C)C(=O)c1cc(Nc2nc(OC3CCOCC3)c3c(ccn3-c3cnn(C)c3)n2)cs1` [Example 174] returned an IC50 of 100 to 1000 nM. Turning to `Cn1cc(-n2ccc3nc(Nc4cc(C(=O)NC5CC5)cs4)nc(O[C@H]4CCOC4)c32)cn1` [Example 143], the IC50 is ≤ 100 nM. Under `CNC(=O)c1cc(Nc2nc(O[C@@H]3CCOC3)c3c(ccn3-c3cnn(C)c3)n2)cs1` [Example 157] stands ≤ 100 nM.

`Cn1cc(-n2ccc3nc(Nc4cc(C(=O)NCC(F)F)cs4)nc(OC4CCOCC4)c32)cn1` [Example 170]: the IC50 is ≤ 100 nM. Under `Cn1cc(-n2ccc3nc(Nc4cc(C(=O)N[C@H]5CCOC5)cs4)nc(O[C@H]4CCOC4)c32)cn1` [Example 147] stands ≤ 100 nM; under `Cn1cc(-n2ccc3nc(Nc4cc(C(=O)N5CCSCC5)cs4)nc(O[C@H]4CCOC4)c32)cn1` [Example 153], 100 to 1000 nM; under `Cc1cc(Nc2nc(NCCCCO)c3c(ccn3-c3cnn(C)c3)n2)sn1` [Example 5], ≤ 100 nM. In the case of `Cn1cc(-n2ccc3nc(Nc4cc(C(=O)NCC(F)(F)F)cs4)nc(O[C@H]4CCOC4)c32)cn1` [Example 138] it was ≤ 100 nM; in that of `Cn1cc(-n2ccc3nc(Nc4ccc5cn[nH]c5c4)nc(O[C@H]4CCOC4)c32)cn1` [Example 124], 100 to 1000 nM.

Turning to `Cc1cc(Nc2nc(OC3CCS(=O)(=O)CC3)c3c(ccn3-c3cnn(C)c3)n2)sn1` [Example 76], the half-maximal inhibitory concentration (IC50) lay in the range of 100 to 1000 nM. Under `Cc1cc(Nc2nc(NC(C)C)c3c(ccn3-c3cnn(C)c3)n2)sn1` [Example 2] stands ≤ 100 nM; under `Cc1cc(Nc2nc(OC3CCCN(C)C3)c3c(ccn3-c3cnn(C)c3)n2)sn1` (stereo not shown) [Example 69], 100 to 1000 nM; under `Cn1cc(-n2ccc3nc(Nc4ccsc4)nc(O[C@H]4CCOC4)c32)cn1` [Example 81], 100 to 1000 nM. In the case of `Cc1cc(Nc2nc(OC3CCCCC3)c3c(ccn3-c3cnn(C)c3)n2)sn1` [Example 66] it was ≤ 100 nM; in that of `Cc1cc(Nc2nc(OC3CCOCC3)c3c(ccn3-c3ccnnc3)n2)sn1` [Example 102], 100 to 1000 nM. Under `CC(C)Nc1nc(Nc2cnn(C3CCOCC3)c2)nc2ccn(-c3cnn(C)c3)c12` [Example 47] stands 100 to 1000 nM. In turn, `Cc1cc(Nc2nc(N[C@H]3CC[C@](C)(O)CC3)c3c(ccn3-c3cnn(C)c3)n2)sn1` [Example 24] showed an IC50 of 100 to 1000 nM. As for `Cc1cc(Nc2nc(NCCCO)c3c(ccn3-c3cnn(C)c3)n2)sn1` [Example 4], the IC50 was ≤ 100 nM. In the case of `Cc1cc(Nc2nc(O[C@H]3CCOC3)c3c(ccn3-c3cnn(C)c3)n2)on1` [Example 83] it was 100 to 1000 nM; in that of `Cn1cc(Nc2nc(O[C@H]3CCOC3)c3c(ccn3-c3cnn(C)c3)n2)cn1` [Example 105, (S)-(1-methyl-1H-pyrazol-4-yl)-[5-(1-methyl-1H-pyrazol-4-yl)-4-(tetrahydrofuran-3-yloxy)-5H-pyrrolo[3,2-d]pyrimidin-2-yl]amine], ≤ 100 nM; in that of `CNC(=O)c1ccc(Nc2nc(O[C@H]3CCOC3)c3c(ccn3-c3cnn(C)c3)n2)s1` [Example 164], 100 to 1000 nM.
